Test results from ChEMBL document CHEMBL5678818, “Discovery of potent SOS1 inhibitors that block RAS activation via disruption of the RAS-SOS1 interaction” (Proc Natl Acad Sci U S A, 2019).

Assays:
[1] = target: Cyclin-dependent kinase 4 (Homo sapiens) (UniProt P11802); assay: Inhibition of CDK4 (unknown origin) assessed as residual activity at 1000 nM by KINOMEscan analysis relative to control
[2] = tested on: Mast/stem cell growth factor receptor Kit (Homo sapiens), P10721 [V559D,T670I]; assay: Inhibition of KIT V559D/T670I mutant (unknown origin) assessed as residual activity at 100 nM by KINOMEscan analysis relative to control
[3] = target: Serine/threonine-protein kinase PAK 6 (Homo sapiens) (UniProt Q9NQU5); assay: Inhibition of PAK6 (unknown origin) assessed as residual activity at 100 nM by KINOMEscan analysis relative to control
[4] = target: Tyrosine-protein kinase Tec (Homo sapiens) (UniProt P42680); assay: Inhibition of TEC (unknown origin) assessed as residual activity at 100 nM by KINOMEscan analysis relative to control
[5] = target: T1, Ephrin type-B receptor 6 (Homo sapiens) (UniProt O15197); assay: Inhibition of EPHB6 (unknown origin) assessed as residual activity at 100 nM by KINOMEscan analysis relative to control
T1 sequence (whole entry): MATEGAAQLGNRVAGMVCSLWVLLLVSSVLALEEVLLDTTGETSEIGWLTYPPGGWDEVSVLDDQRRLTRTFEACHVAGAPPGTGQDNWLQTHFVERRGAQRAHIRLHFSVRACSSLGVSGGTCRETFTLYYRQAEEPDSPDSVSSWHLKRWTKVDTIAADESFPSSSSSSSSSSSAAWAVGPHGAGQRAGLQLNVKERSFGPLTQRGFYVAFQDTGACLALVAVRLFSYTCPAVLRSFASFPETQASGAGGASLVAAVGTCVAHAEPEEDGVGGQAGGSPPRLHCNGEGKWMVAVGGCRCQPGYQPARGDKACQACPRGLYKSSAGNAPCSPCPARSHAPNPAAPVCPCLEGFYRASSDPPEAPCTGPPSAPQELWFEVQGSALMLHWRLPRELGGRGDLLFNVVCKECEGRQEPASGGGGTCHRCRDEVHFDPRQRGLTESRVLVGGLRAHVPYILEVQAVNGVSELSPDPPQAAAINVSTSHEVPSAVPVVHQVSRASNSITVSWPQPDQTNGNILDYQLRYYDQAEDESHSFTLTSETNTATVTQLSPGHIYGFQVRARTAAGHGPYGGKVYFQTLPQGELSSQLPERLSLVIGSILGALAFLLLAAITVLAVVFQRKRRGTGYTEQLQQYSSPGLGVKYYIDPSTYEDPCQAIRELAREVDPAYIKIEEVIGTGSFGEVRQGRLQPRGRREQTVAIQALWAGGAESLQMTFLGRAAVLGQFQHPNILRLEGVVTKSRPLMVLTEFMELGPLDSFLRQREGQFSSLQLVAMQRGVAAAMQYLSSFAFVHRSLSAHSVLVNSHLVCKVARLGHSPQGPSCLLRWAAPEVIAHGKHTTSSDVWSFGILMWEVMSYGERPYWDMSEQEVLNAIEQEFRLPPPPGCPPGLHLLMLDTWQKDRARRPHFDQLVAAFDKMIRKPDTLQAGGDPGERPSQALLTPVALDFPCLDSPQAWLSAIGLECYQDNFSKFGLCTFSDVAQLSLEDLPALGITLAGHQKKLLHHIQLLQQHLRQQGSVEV

[6] = target: Protein-tyrosine kinase 2-beta (Homo sapiens) (UniProt Q14289); assay: Inhibition of PYK2 (unknown origin) assessed as residual activity at 100 nM by KINOMEscan analysis relative to control
[7] = target: Serine/threonine-protein kinase MAK (Homo sapiens) (UniProt P20794); assay: Inhibition of MAK (unknown origin) assessed as residual activity at 100 nM by KINOMEscan analysis relative to control
[8] = tested on: Mast/stem cell growth factor receptor Kit (Homo sapiens), P10721 [A829P]; assay: Inhibition of KIT A829P mutant (unknown origin) assessed as residual activity at 100 nM by KINOMEscan analysis relative to control
[9] = target: Insulin receptor-related protein (Homo sapiens) (UniProt P14616); assay: Inhibition of INSRR (unknown origin) assessed as residual activity at 100 nM by KINOMEscan analysis relative to control
[10] = target: T2, Dual serine/threonine and tyrosine protein kinase (Homo sapiens) (UniProt Q6XUX3); assay: Inhibition of RIPK5 (unknown origin) assessed as residual activity at 100 nM by KINOMEscan analysis relative to control
T2 sequence (whole entry): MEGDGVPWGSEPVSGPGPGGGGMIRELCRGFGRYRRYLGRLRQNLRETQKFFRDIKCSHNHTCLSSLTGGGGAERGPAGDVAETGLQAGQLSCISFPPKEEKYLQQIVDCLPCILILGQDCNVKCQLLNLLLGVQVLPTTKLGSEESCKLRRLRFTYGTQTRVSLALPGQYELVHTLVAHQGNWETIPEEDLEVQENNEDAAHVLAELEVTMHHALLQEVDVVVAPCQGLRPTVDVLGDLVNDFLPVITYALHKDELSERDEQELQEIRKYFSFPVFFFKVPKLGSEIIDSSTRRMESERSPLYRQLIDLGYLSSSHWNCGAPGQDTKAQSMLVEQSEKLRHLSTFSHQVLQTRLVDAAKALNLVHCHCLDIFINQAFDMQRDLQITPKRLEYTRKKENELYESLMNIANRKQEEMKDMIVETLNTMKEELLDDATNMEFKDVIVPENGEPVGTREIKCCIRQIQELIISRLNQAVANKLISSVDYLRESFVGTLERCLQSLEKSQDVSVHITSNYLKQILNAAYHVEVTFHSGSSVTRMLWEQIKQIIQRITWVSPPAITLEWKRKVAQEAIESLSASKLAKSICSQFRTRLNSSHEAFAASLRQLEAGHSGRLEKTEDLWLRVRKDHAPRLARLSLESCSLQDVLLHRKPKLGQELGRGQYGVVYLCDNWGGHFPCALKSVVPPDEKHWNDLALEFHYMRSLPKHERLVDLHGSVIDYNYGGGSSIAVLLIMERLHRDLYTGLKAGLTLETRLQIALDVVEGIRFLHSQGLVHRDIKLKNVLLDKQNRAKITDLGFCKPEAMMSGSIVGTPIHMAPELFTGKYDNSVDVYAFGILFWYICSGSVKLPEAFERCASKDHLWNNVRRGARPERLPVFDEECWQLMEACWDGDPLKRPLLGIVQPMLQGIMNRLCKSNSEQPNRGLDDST

[11] = tested on: Epidermal growth factor receptor (Homo sapiens), P00533 [UNDEFINED MUTATION]; assay: Inhibition of EGFR L747-S752del/P753S mutant (unknown origin) assessed as residual activity at 100 nM by KINOMEscan analysis relative to control
[12] = tested on: Epidermal growth factor receptor (Homo sapiens), P00533 [UNDEFINED MUTATION]; assay: Inhibition of EGFR S752-I759del mutant (unknown origin) assessed as residual activity at 100 nM by KINOMEscan analysis relative to control

Epidermal growth factor receptor (Homo sapiens), P00533 [UNDEFINED MUTATION], sequence (P00533 whole entry, looked up, stated change not applied): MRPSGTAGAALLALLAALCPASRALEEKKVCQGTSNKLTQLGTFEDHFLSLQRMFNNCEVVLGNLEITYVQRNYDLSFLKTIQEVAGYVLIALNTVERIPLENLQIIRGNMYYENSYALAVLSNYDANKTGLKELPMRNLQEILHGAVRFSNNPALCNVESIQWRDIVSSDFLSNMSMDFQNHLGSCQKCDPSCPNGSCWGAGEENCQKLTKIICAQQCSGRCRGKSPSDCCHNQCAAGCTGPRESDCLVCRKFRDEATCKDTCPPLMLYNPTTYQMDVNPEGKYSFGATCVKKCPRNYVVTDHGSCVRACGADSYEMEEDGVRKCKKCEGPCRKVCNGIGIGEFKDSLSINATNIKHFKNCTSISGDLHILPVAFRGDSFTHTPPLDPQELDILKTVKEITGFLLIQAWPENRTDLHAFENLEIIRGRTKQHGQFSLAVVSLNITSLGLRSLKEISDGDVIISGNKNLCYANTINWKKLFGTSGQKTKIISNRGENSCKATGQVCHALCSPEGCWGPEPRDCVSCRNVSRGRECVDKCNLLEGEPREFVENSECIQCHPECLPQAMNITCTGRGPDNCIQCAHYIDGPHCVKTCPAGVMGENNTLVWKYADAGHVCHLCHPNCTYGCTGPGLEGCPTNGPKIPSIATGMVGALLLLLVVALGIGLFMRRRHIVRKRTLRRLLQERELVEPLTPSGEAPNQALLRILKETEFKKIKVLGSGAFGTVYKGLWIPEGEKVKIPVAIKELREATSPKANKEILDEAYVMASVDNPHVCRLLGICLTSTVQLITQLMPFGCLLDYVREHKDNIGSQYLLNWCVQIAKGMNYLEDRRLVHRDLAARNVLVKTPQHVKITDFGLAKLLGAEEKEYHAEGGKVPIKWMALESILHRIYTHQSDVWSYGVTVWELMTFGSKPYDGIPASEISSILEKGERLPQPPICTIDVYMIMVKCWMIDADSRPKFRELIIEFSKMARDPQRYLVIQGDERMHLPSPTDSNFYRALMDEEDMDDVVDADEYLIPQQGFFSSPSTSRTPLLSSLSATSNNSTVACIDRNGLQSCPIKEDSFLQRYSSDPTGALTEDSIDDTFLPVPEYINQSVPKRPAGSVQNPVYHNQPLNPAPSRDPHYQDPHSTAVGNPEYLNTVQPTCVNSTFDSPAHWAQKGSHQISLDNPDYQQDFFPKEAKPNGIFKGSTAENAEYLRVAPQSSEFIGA
Tyrosine-protein kinase Tec (Homo sapiens), sequence (P42680 whole entry, looked up): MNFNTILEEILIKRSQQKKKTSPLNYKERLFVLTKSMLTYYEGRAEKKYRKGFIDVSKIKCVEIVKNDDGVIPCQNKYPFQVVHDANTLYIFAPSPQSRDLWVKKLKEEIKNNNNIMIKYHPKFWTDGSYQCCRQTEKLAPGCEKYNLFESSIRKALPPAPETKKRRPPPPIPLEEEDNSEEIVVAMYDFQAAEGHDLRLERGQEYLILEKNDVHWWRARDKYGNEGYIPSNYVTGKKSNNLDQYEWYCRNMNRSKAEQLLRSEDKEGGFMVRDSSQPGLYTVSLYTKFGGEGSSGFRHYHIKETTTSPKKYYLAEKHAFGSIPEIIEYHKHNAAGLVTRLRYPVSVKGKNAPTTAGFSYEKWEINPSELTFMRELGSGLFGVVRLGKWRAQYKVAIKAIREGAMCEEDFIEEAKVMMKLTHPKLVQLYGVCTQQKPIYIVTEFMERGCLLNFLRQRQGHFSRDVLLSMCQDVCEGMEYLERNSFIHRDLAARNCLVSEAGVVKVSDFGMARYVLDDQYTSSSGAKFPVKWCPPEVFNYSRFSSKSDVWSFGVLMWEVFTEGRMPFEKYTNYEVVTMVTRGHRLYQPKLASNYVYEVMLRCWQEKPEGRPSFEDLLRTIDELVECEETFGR
Protein-tyrosine kinase 2-beta (Homo sapiens), sequence (Q14289 whole entry, looked up): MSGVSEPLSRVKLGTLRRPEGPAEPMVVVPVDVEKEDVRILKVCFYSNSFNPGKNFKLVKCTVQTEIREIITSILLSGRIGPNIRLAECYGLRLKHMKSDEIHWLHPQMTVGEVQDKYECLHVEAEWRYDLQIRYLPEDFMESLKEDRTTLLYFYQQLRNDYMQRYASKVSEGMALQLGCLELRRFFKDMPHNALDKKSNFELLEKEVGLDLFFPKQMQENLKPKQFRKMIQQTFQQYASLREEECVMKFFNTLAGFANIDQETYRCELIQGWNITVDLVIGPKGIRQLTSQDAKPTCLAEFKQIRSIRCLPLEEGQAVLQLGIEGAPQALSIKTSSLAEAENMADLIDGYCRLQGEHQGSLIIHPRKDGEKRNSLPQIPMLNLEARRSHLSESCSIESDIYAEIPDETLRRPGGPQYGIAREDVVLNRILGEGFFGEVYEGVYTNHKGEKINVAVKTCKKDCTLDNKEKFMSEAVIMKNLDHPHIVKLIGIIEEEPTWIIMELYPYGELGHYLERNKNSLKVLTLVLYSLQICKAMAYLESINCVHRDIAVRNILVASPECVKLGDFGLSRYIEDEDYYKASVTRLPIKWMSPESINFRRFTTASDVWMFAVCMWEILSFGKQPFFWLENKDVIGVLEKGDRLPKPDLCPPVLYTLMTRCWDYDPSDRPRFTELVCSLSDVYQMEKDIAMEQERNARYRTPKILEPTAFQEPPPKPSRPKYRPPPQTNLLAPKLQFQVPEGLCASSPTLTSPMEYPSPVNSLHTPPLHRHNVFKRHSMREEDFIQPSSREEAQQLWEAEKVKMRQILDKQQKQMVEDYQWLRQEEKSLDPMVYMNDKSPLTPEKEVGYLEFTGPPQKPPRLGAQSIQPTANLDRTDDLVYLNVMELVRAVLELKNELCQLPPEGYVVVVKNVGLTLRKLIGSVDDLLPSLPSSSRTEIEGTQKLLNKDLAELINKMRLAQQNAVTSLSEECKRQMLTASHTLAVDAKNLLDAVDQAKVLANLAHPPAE
Cyclin-dependent kinase 4 (Homo sapiens), sequence (P11802 whole entry): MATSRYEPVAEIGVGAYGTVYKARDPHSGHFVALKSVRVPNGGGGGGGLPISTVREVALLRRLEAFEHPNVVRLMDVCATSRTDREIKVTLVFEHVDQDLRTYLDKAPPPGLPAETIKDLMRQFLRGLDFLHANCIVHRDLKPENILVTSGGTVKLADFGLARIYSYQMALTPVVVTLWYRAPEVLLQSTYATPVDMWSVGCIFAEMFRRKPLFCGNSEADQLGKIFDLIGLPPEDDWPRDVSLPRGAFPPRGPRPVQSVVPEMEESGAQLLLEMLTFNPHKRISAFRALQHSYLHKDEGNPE
Insulin receptor-related protein (Homo sapiens), sequence (P14616 27-742 limits assumed): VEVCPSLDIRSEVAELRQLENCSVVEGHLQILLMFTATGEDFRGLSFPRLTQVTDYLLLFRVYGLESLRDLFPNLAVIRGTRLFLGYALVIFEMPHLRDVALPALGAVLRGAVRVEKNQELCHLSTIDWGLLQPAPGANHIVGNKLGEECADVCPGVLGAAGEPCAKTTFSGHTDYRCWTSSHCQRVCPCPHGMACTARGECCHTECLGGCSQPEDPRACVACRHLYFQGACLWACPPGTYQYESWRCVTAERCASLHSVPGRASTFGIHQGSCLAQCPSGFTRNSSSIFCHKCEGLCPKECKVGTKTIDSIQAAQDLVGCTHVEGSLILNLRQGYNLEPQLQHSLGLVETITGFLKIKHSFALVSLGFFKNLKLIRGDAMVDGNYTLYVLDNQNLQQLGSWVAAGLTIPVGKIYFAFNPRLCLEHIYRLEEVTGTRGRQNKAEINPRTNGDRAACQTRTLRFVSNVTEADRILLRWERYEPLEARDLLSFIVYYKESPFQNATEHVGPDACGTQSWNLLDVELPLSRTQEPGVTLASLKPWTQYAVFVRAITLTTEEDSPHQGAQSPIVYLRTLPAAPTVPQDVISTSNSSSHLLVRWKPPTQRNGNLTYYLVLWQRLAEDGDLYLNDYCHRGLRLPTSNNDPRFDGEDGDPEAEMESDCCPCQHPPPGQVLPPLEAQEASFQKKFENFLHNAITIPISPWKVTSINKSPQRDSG
Insulin receptor-related protein (Homo sapiens), sequence (P14616 747-1297 limits assumed): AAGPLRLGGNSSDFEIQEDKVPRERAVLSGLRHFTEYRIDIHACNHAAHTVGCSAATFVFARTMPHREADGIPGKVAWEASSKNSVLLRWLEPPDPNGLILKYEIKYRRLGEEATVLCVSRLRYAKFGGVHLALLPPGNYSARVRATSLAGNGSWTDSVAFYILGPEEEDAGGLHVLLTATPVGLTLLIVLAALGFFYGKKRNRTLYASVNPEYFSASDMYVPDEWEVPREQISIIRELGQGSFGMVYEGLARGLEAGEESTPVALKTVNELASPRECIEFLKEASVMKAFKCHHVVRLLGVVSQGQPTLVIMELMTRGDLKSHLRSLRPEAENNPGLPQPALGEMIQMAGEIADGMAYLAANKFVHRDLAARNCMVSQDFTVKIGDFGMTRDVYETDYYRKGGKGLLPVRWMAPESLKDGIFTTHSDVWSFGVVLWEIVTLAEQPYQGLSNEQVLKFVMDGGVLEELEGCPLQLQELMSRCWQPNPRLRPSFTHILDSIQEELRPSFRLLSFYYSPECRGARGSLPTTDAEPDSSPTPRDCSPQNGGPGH
Serine/threonine-protein kinase MAK (Homo sapiens), sequence (P20794 whole entry, looked up): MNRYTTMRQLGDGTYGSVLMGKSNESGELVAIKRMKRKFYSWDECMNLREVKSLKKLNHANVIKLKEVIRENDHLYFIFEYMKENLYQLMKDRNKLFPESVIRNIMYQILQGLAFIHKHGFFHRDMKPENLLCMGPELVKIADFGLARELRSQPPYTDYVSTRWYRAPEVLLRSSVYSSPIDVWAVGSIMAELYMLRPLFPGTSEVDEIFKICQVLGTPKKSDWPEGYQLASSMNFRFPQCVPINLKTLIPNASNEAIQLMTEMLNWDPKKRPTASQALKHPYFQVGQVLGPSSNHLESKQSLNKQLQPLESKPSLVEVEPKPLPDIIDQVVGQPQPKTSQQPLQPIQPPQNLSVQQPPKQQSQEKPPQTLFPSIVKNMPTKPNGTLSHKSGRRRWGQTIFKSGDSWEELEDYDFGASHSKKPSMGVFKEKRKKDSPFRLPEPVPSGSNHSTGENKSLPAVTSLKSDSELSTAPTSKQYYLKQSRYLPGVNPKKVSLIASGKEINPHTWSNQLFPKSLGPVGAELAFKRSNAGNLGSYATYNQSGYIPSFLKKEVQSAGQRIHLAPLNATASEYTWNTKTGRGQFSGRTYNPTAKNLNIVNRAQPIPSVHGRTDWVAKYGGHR

Row | SMILES | Activity [1] [%] | Activity [2] [%] | Activity [3] [%] | Activity [4] [%] | Activity [5] [%] | Activity [6] [%] | Activity [7] [%] | Activity [8] [%] | Activity [9] [%] | Activity [10] [%] | Activity [11] [%] | Activity [12] [%]
1 | COc1cc2nc(C)nc(N[C@H](C)c3cccc(-c4cn[nH]c4)c3)c2cc1OC | 92 | – | – | – | – | – | – | – | – | – | – | –
2 | COc1cc2ncnc(N[C@H](C)c3cccc4ccccc34)c2cc1OC | – | 92 | 92 | 87 | 77 | 100 | 100 | 96 | 92 | 96 | 90 | 93
